# Measured values published in US20200009125A1, “Pharmaceutical Compositions For Poorly Water-Soluble Compounds” (ASCENDIA PHARMACEUTICALS, LLC, priority 2013, published 2020).
# How the values were obtained:
# [1] = cited from earlier work; for aqueous solubility in water: Source: Drugbank
# [2] = cited from earlier work; for pKa: Source: Drugbank or FDA
# [3] = physchem
smiles,measurement,setting,value
"COc1ccc(-n2nc(C(N)=O)c3c2C(=O)N(c2ccc(N4CCCCC4=O)cc2)CC3)cc1 [Apixaban, apixaban]",aqueous solubility in water,[1],40 to 50 µg/mL
same,detectable pKa,"[2]; within pH range of 0.0-10.0, Source: Drugbank",no detectable pKa
"COC(=O)[C@H](c1ccccc1Cl)N1CCc2sccc2C1 [Clopidogrel, clopidogrel]",solubility,"[3]; aqueous solution at pH 1.2, pH 1.2, simulated gastric fluid",5200 µg/mL
same,solubility,"[3]; aqueous solution at pH 6.8, pH 6.8, aqueous buffer",14 µg/mL
same,pKa,[2],4.5
"O=C(O)Cc1ccccc1Nc1c(Cl)cccc1Cl [Diclofenac, diclofenac]",solubility in intestinal fluid of neutral pH,"[1]; as sodium salt, intestinal fluid of neutral pH",1113 μg/mL
"CC(C)Cc1ccc(C(C)C(=O)O)cc1 (centres unmarked) [Ibuprofen, ibuprofen]",solubility of ibuprofen alone at pH 1.2,"[1]; pH 1.2, drug alone, same figure as Drugbank water solubility",0.021 mg/mL
"CC(=O)Oc1cc2c(s1)CCN(C(C(=O)C1CC1)c1ccccc1F)C2 (centres unmarked) [Prasugrel, prasugrel]",aqueous solubility in water,[1],2.37 µg/mL
same,pKa,[2],5.48
CCC(C)n1ncn(-c2ccc(N3CCN(c4ccc(OCC5COC(Cn6cncn6)(c6ccc(Cl)cc6Cl)O5)cc4)CC3)cc2)c1=O (centres unmarked) [itraconazole],solubility in gastric fluid,[1]; gastric fluid,3500 µg/mL
same,solubility in intestinal fluid,[1]; intestinal fluid,0.2 µg/mL
